The record followed here is publication PMC9292003, “A β‐ketoacyl carrier protein reductase confers heat tolerance via the regulation of fatty acid biosynthesis and stress signaling in rice” (The New Phytologist, 2021).

In the test the target is T1, HTS1 (GST-HTS1) (Oryza sativa, UniProt Q7XMI8).
T1 construct: E. coli BL21; vector printed as pET30a
Description: NADPH absorption at. Format: biochemical. The conditions noted are these: reductase activity; co-substrate printed as NADH in results, NADPH in methods.

On to `CC(=O)CC(=O)SCCNC(=O)CCNC(=O)[C@H](O)C(C)(C)COP(=O)(O)OP(=O)(O)OC[C@H]1O[C@@H](n2cnc3c(N)ncnc32)[C@H](O)[C@@H]1OP(=O)(O)O` [acetoacetyl-CoA], for which the “NADPH absorption at 340 nm” value is “High catalytic activity was detected in GST‐HTS1 after introducing acetoacetyl‐CoA and NADH”.
